This passage reports GI50 and TGI results from PubChem BioAssay (NCI).

Some test systems named below: COLO 205 colon; SNB-75 CNS; OVCAR-3 ovarian; NCI/ADR-RES ovarian; HL-60(TB) leukemia; BT-549 breast; SW-620 colon; SK-MEL-28 melanoma; OVCAR-8 ovarian; NCI-H522 lung.
What all share (experiment): growth of human tumour cells (NCI), 48 h

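Test compounds were applied to cells in 96-well plates for 48 hours at 5 doses. GI50 marks 50% less growth. TGI: total growth inhibition.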

Turning to `CN(Cc1ccc(Cl)cc1)c1ccc(CO)c(Cl)c1`, the GI50 with COLO 205 colon was 5.95 µM; in the assay with SNB-75 CNS, 7.06 µM; in the assay with OVCAR-3 ovarian, 3.74 µM; with NCI/ADR-RES ovarian, 8 µM; in the assay on HL-60(TB) leukemia it was 5.28 µM; in the assay on BT-549 breast, 5.31 µM. Further, the GI50 in the assay on SW-620 colon is 3.85 µM; in the assay with SK-MEL-28 melanoma it was 12.3 µM; in the assay with OVCAR-8 ovarian it was 7.05 µM; in the assay on NCI-H522 lung it was 13.4 µM. In addition, the TGI in the assay with COLO 205 colon is 18.1 µM; in the assay with SNB-75 CNS it was 26.4 µM; in the assay on OVCAR-3 ovarian it was 13.2 µM; with NCI/ADR-RES ovarian, 25.4 µM; in the assay on HL-60(TB) leukemia, 42.4 µM; in the assay with BT-549 breast, 19.9 µM. Moreover, the TGI with SW-620 colon is 19.5 µM; in the assay with SK-MEL-28 melanoma, 25.1 µM; with OVCAR-8 ovarian it was 27.4 µM; in the assay on NCI-H522 lung it was 31.2 µM.

On to `CCC1C(=O)OCc2c1cc1n(c2=O)Cc2cc3ccccc3nc2-1` (stereo not drawn), for which the TGI in the assay with COLO 205 colon is above 100 µM; in the assay on SNB-75 CNS it was 25.9 µM; with OVCAR-3 ovarian, above 100 µM; in the assay on NCI/ADR-RES ovarian, above 64.7 µM; in the assay with HL-60(TB) leukemia it was above 36.2 µM; in the assay with BT-549 breast, above 59.5 µM. Moreover, the TGI was above 100 µM with SW-620 colon, above 100 µM with SK-MEL-28 melanoma, above 70.9 µM in the assay on OVCAR-8 ovarian and above 44.4 µM with NCI-H522 lung.

For the compound `COc1cc(C(=O)N2N=C(c3ccc(S(C)(=O)=O)cc3)CC2c2ccco2)cc(OC)c1OC` (stereo not drawn), the GI50 with COLO 205 colon is 2.27 µM; in the assay on SNB-75 CNS, 2.91 µM; in the assay on OVCAR-3 ovarian, 1.95 µM; in the assay on NCI/ADR-RES ovarian it was 6.04 µM; in the assay with HL-60(TB) leukemia it was 1.41 µM; with BT-549 breast, 5.2 µM. Besides, the GI50 is 3.62 µM in the assay on SW-620 colon, 22.2 µM in the assay on SK-MEL-28 melanoma, 20.2 µM with OVCAR-8 ovarian and 3.95 µM with NCI-H522 lung. The TGI in the assay with COLO 205 colon is 10.1 µM; with SNB-75 CNS, above 46 µM; in the assay on OVCAR-3 ovarian, 5.46 µM; with NCI/ADR-RES ovarian, above 67.7 µM; with HL-60(TB) leukemia, 4.47 µM; in the assay on BT-549 breast it was above 71.7 µM. Besides, the TGI in the assay on SW-620 colon was above 100 µM; in the assay with SK-MEL-28 melanoma, above 100 µM; in the assay on OVCAR-8 ovarian, above 100 µM; in the assay on NCI-H522 lung, above 61.6 µM.

Consider `CCOC(=O)/C(=N\OC)C(O)C(F)(F)F` (stereo not drawn), for which the TGI in the assay on COLO 205 colon, in the assay on SNB-75 CNS, in the assay on NCI/ADR-RES ovarian, in the assay on HL-60(TB) leukemia, in the assay on BT-549 breast and with SW-620 colon was above 100 µM throughout. The TGI in the assay with SK-MEL-28 melanoma, in the assay on OVCAR-8 ovarian and in the assay with NCI-H522 lung was above 100 µM in each case.

Take `c1ccc2c(c1)sc1c3cnccc3ccc21`: the TGI with COLO 205 colon, in the assay with SNB-75 CNS, in the assay with OVCAR-3 ovarian, in the assay on NCI/ADR-RES ovarian, in the assay with HL-60(TB) leukemia and with BT-549 breast was above 100 µM throughout. In addition, the TGI in the assay with SW-620 colon, with SK-MEL-28 melanoma and in the assay on NCI-H522 lung was above 100 µM each time.

For the compound `Nc1cc(C(=O)O)[nH]c(=O)n1`, the TGI in the assay with COLO 205 colon, in the assay on OVCAR-3 ovarian, with NCI/ADR-RES ovarian, in the assay with HL-60(TB) leukemia, in the assay with BT-549 breast and with SW-620 colon was above 100 µM throughout. Besides, the TGI in the assay on SK-MEL-28 melanoma, in the assay on OVCAR-8 ovarian and in the assay with NCI-H522 lung was above 100 µM in each case.

For `C#CCN(Cc1nc2cc(C(F)(F)F)ccc2nc1-c1ccccc1)c1ccc(OC(F)(F)F)cc1`, the GI50 in the assay on COLO 205 colon was 45.4 µM; in the assay with SNB-75 CNS, above 100 µM; with OVCAR-3 ovarian, 49.1 µM; with NCI/ADR-RES ovarian, above 100 µM; with BT-549 breast, 44.9 µM; in the assay with SW-620 colon, 40.9 µM. The GI50 with SK-MEL-28 melanoma was above 100 µM; in the assay on OVCAR-8 ovarian it was 74.3 µM; in the assay on NCI-H522 lung, 16.6 µM. The TGI in the assay on COLO 205 colon, with SNB-75 CNS, in the assay with OVCAR-3 ovarian, in the assay on NCI/ADR-RES ovarian, in the assay on BT-549 breast and in the assay on SW-620 colon was above 100 µM in each case. In addition, the TGI with SK-MEL-28 melanoma is above 100 µM; in the assay with OVCAR-8 ovarian, above 100 µM; in the assay with NCI-H522 lung, 54.6 µM.

In the case of `C=C(C)C1Cc2c(cc(OC)c3c(=O)c4cccc(O)c4oc23)O1` (stereo not drawn), the TGI is above 100 µM in the assay with COLO 205 colon; 29.9 µM in the assay on SNB-75 CNS; above 100 µM in the assay with NCI/ADR-RES ovarian; above 100 µM in the assay on HL-60(TB) leukemia; 34.8 µM in the assay with BT-549 breast; above 100 µM in the assay with SW-620 colon. Besides, the TGI worked out at 72 µM with SK-MEL-28 melanoma, 59.5 µM with OVCAR-8 ovarian and 33.8 µM with NCI-H522 lung.

As for `O=c1cc(-c2ccccc2)oc2cc(O)c(O)c(O)c12`, the GI50 in the assay with SNB-75 CNS was above 100 µM; in the assay with OVCAR-3 ovarian it was 16 µM; in the assay on NCI/ADR-RES ovarian it was 16 µM; in the assay with HL-60(TB) leukemia it was 55.1 µM; with BT-549 breast, 13.6 µM; in the assay with SW-620 colon, 17.8 µM. The GI50 in the assay on SK-MEL-28 melanoma was 92.3 µM; in the assay on OVCAR-8 ovarian it was 46.5 µM; in the assay with NCI-H522 lung it was 13.3 µM. The TGI with SNB-75 CNS was above 100 µM; in the assay with OVCAR-3 ovarian, 41.7 µM; in the assay on NCI/ADR-RES ovarian, 44.6 µM; in the assay on HL-60(TB) leukemia it was above 100 µM; with BT-549 breast it was 87.5 µM; in the assay with SW-620 colon, above 100 µM. Moreover, the TGI in the assay on SK-MEL-28 melanoma, in the assay on OVCAR-8 ovarian and with NCI-H522 lung was above 100 µM each time.

For the compound `O=C1C2C(C(=O)[N]1[Hg][c]1cccs1)C1(Cl)C(Cl)=C(Cl)C2(Cl)C1(Cl)Cl` (stereo not drawn), the GI50 is 1.22 µM in the assay on COLO 205 colon; 1.37 µM with SNB-75 CNS; 0.283 µM with OVCAR-3 ovarian; 2.07 µM with NCI/ADR-RES ovarian; 1.29 µM with HL-60(TB) leukemia; 0.984 µM in the assay with BT-549 breast. The figures for the GI50 in the assay on SW-620 colon, with SK-MEL-28 melanoma and in the assay with NCI-H522 lung were 1.02 µM, 1.24 µM and 0.162 µM, respectively. In addition, the TGI in the assay with COLO 205 colon is 2.65 µM; with SNB-75 CNS it was 4.81 µM; in the assay with OVCAR-3 ovarian, 0.904 µM; in the assay with NCI/ADR-RES ovarian, 4.8 µM; in the assay with HL-60(TB) leukemia, 4.63 µM; in the assay on BT-549 breast, 2.24 µM. Besides, the TGI in the assay on SW-620 colon is 3.08 µM; in the assay with SK-MEL-28 melanoma it was 2.7 µM; in the assay with NCI-H522 lung it was 0.432 µM.

For the compound `COc1cc2c3c(n(CCCN(CCN)CCCn4c5c(c6cc(OC)c(OC)cc6c4=O)C(=O)c4cc6c(cc4-5)OCO6)c(=O)c2cc1OC)-c1cc2c(cc1C3=O)OCO2`, the GI50 was 0.645 µM in the assay on COLO 205 colon; 2.54 µM in the assay with SNB-75 CNS; 4.34 µM with OVCAR-3 ovarian; 2.22 µM in the assay with NCI/ADR-RES ovarian; 5.08 µM in the assay with BT-549 breast; 0.719 µM in the assay on SW-620 colon. For the same compound, the GI50 with SK-MEL-28 melanoma is above 37.1 µM; in the assay on OVCAR-8 ovarian it was 1.53 µM; with NCI-H522 lung, 0.343 µM. The TGI in the assay with COLO 205 colon was above 57 µM; with SNB-75 CNS, above 100 µM; with OVCAR-3 ovarian it was 20.7 µM; in the assay with NCI/ADR-RES ovarian, above 76.1 µM; in the assay on BT-549 breast it was above 79.3 µM; in the assay with SW-620 colon it was above 70.7 µM. Besides, the TGI was above 100 µM in the assay on SK-MEL-28 melanoma, above 42.2 µM in the assay on OVCAR-8 ovarian and 3.88 µM in the assay on NCI-H522 lung.

On to `O=C1c2cccnc2C(=O)C2C3C=CC(C3)C12` (stereo not drawn), for which the TGI is 26.5 µM with COLO 205 colon; 25.8 µM with SNB-75 CNS; 31.8 µM in the assay with OVCAR-3 ovarian; above 100 µM in the assay with NCI/ADR-RES ovarian; 24 µM with BT-549 breast; 28.2 µM with SW-620 colon. Also, the TGI in the assay with SK-MEL-28 melanoma was 39.3 µM; in the assay with OVCAR-8 ovarian, 30 µM; in the assay with NCI-H522 lung, 13.8 µM.

`N#C/C(=N\Nc1ccc(Cl)cc1)C(=O)Nc1cc(-c2ccccc2)nn1-c1ccccc1`: the GI50 with COLO 205 colon is 2.07 µM; in the assay with OVCAR-3 ovarian, 2.71 µM; in the assay on NCI/ADR-RES ovarian, 3.09 µM; in the assay with HL-60(TB) leukemia it was 3.05 µM; in the assay with BT-549 breast, 2.52 µM; in the assay with SW-620 colon, 3.11 µM. Moreover, the GI50 in the assay with SK-MEL-28 melanoma was 3.62 µM; in the assay with OVCAR-8 ovarian, 2.96 µM; with NCI-H522 lung it was 2.38 µM. In addition, the TGI with COLO 205 colon is 4.51 µM; in the assay on OVCAR-3 ovarian, above 100 µM; in the assay on NCI/ADR-RES ovarian it was above 100 µM; in the assay on HL-60(TB) leukemia, 9.38 µM; in the assay on BT-549 breast, 7.18 µM; in the assay on SW-620 colon, above 100 µM. For the same compound, the TGI in the assay with SK-MEL-28 melanoma, in the assay with OVCAR-8 ovarian and in the assay with NCI-H522 lung was above 100 µM each time.

`O=C(Nc1ccc(F)cc1)Nc1ccccc1CNc1nc(Nc2ccc(OCCN3CCCC3)cc2)ncc1Cl`: the GI50 was 0.677 µM with SNB-75 CNS; 1.01 µM in the assay with OVCAR-3 ovarian; 2.59 µM in the assay on NCI/ADR-RES ovarian; 1.07 µM in the assay on HL-60(TB) leukemia; 5.15 µM in the assay with BT-549 breast; 1.65 µM with SW-620 colon. Further, the results for the GI50 in the assay on SK-MEL-28 melanoma, with OVCAR-8 ovarian and with NCI-H522 lung were 0.899 µM, 1.83 µM and 2.26 µM, respectively. Besides, the TGI with SNB-75 CNS was 1.35 µM; in the assay on OVCAR-3 ovarian it was 2.01 µM; in the assay with NCI/ADR-RES ovarian, 10.4 µM; with HL-60(TB) leukemia, 2.31 µM; in the assay on BT-549 breast, 11.2 µM; with SW-620 colon, 6.84 µM. Besides, the TGI was 1.78 µM in the assay with SK-MEL-28 melanoma, 12.2 µM in the assay with OVCAR-8 ovarian and 13.4 µM in the assay with NCI-H522 lung.
